FAM = 5(6)-carboxyfluorescein
Test system: NSC-34 cells
Experiment: Evaluation of cell membrane permeability by flow cytometry (fluorescence of FAM taken up by NSC-34 cells)
Format: cell-based, mouse
Settings: for median fluorescence intensity (MFI): 10 μM in culture solution, 0.50% DMSO, 37 °C, 5% CO2, flow cytometer detector FL2; for median fluorescence intensity (MFI) / MFI compared with Example 3 (FAM): 20 hours; for MFI compared with Example 3 (FAM): 10 μM, result in words; for cell membrane permeability: peptide fragment, tested as FAM construct, conclusion in words
Experimental: As the eukaryotic cells, NSC-34 cells (mouse motor neuron-like hybrid cell line) were used and the cell membrane permeability of the prepared construct was evaluated.
The NSC-34 cell was cultured in 10% fetal bovine serum (FBS)-containing Dulbecco's modified Eagle's medium (DMEM (Cat No. 044-29765, manufactured by FUJIFILM Wako Pure Chemical Corporation)), which is a culture medium.
The NSC-34 cell that adhered to a culture plate was cleaned with PBS and then, a 0.25%-trypsin/EDTA solution was added thereto, and incubation was performed for three minutes at 37 °C. After the incubation, the aforementioned 10% FBS-containing DMEM was added to deactivate trypsin and then, five-minute centrifugal separation was performed at 150×g to precipitate the cells. After the supernatant generated by the centrifugal separation was removed, the 10% FBS-containing DMEM was added to the precipitate (cell pellet) to prepare a cell suspension of about 2×10^5 cells/mL. The cell suspension was added by 1 mL to a well of a commercially available six-hole (well) plate (manufactured by AGC TECHNO GLASS Co., Ltd.) so as to seed the cell (about 2×10^5 cells/well), and incubation was caried out for about two to three hours until the cell adhered to a bottom surface of the well. After that, the 2 mM sample solution 1 prepared as above was diluted with the 10% FBS-containing DMEM to prepare the sample solution 1 in which the concentration of the sample was 20 μM. Then, 1 mL of the 20 μM sample solution 1 was added to the well (that is, so that the concentration of the construct 1 became 10 μM and the DMSO concentration became 0.50% in the culture solution in the well). The cell was incubated for 20 hours at 37 °C under a 5% CO2 condition.
After the 20-hour incubation, the culture supernatant was removed from the well and the cells in the well were cleaned twice with 1 mL of PBS. Next, 100 μL of the 0.25% trypsin/EDTA solution was added to the well and the incubation was performed for three minutes at 37 °C. After the incubation, 900 μL of the 10% FBS-containing DMEM was added to the well to deactivate the trypsin. The cell suspension in the well was transferred to a tube and the cells were collected. After that, pre-washing was performed additionally, so that the cells remaining in the well were collected in the tube. This tube was subjected to five-minute centrifugal separation at 4 °C under a condition of 210×g. After the centrifugal separation, the supernatant was removed and the precipitate (cell pellet) was suspended (cleaned) with 1 mL of PBS, which was followed by the centrifugal separation under the same condition as that described above. Then, the supernatant was removed and thus, the cells (cell pellet) cultured in a culture medium containing the sample were obtained.
Regarding the obtained cells (cell pellet), the cell membrane permeability was analyzed using a flow cytometer. As the flow cytometer, On-Chip Flowcytometer (manufactured by On-Chip Biotechnologies Co., LTD.) was used.
For such an analysis, the obtained cell pellet was suspended with 50 μL of on-chip T buffer to prepare a cell suspension for analysis.
Using the aforementioned flow cytometer, gating based on forward scatter (FSC) and side scatter (SSC) was performed to set a gate about a cell group to be analyzed, and the fluorescence intensity was measured about the cell group in this gate. Note that the number of cells of the cell group to be analyzed was set to at least 10000, and the analysis was performed. The fluorescence intensity was measured using a fluorescence detector FL2 of the flow cytometer (optimum detection wavelength around 543 nm) capable of detecting the fluorescence wavelength of FAM. Regarding this measurement result, the analysis was performed using commercially available analysis software “FlowJo” (manufactured by TreeStar) to obtain median fluorescence intensity (MFI) of the cell group to be measured (see Table 1). […]

Substance: 5(6)-carboxyfluorescein [Example 3, reference compound]
- median fluorescence intensity (MFI): 7.28

Substance: Ac-VLSRVQLREKLTR-FAM (Ac-VLSRVQLREKLTR-{FAM}) [Example 2]
- median fluorescence intensity (MFI): 31.3
- MFI compared with Example 3 (FAM): higher

Substance: Ac-VLSRVVQLLREKLTRKK-FAM [Example 1]
- median fluorescence intensity (MFI): 30.4
- MFI compared with Example 3 (FAM): higher

Substance: VLSRVQLREKLTR [SEQ ID No.: 2, peptide fragment (synthetic peptide) having cell membrane permeability]
- cell membrane permeability: has the cell membrane permeability

Substance: VLSRVVQLLREKLTRKK [SEQ ID No.: 1, peptide fragment (synthetic peptide) having cell membrane permeability]
- cell membrane permeability: has the cell membrane permeability

From patent US20260347401A1, “Peptide Fragment And Use Thereof” (TOAGOSEI CO., LTD., priority 2023, published 2026)
